# Results taken from patent publication US10028961B2, “Therapeutically active compounds and their methods of use” (AGIOS PHARMACEUTICALS, INC., priority 2013, dated 2018).
# Molecular target: IDH1 wt/IDH1 R132H heterodimer (Homo sapiens (Human), UniProt O75874, R132H)
# Test: In vitro assay for IDH1m R132H inhibitors, IDH1 wt/IDH1 R132H heterodimer, NADPH depletion (diaphorase/resazurin)
# Format: biochemical
# Settings: IDH1 wt/R132H heterodimer, NADPH/NADP, not saturated; read-out: IDH1 wt/R132H NADPH/NADP IC50 not saturated
# Experimental: The following describes the experimental procedures that can be used to obtain data on columns 2 and 4 of Table 4 and column 2 of Table 5.
# In the primary reaction, the reduction of α-KG acid to 2-HG is accompanied by a concomitant oxidation of NADPH to NADP. The amount of NADPH remaining at the end of the reaction time is measured in a secondary diaphorase/resazurin reaction in which the NADPH is consumed in a 1:1 molar ratio with the conversion of resazurin to the highly fluorescent resorufin.
# The mixture of compound, enzyme, and cofactor is pre-incubated at room temperature for 1 hr prior to the addition of alpha-ketoglutarate. To perform the secondary reaction, 10 uL of 1× buffer containing 36 μg/ml diaphorase and […] resazurin is added to the primary reaction and incubated for a further 5 minutes at 25° C. […] Compounds or compound dilutions are prepared in 100% DMSO concentration and diluted 1:50 into the final reaction. […] IC50s are determined.
# IDH1 or IDH2 wildtype (wt) and mutant heterodimers are expressed and purified by methods known in the art. […] Co-expression of IDH1wt-his and IDH1R132C-flag is carried out in sf9 insect cells. Cells (25 g) are resuspended in 250 ml of 50 mM Tirs, 500 mM NaCl, pH7.4, at 4° C. with stirring. Cells are disrupted with 4 passes through an M-Y110 Micro fluidizer (Microfluidics) set to 500 psi, and then centrifuged at 22,000 rcf for 20 min at 4° C. The supernatant is harvested and loaded at 15 cm/h on a Histrap FF 5*1 ml column (GE) which is equilibrated with 50 mM Tirs, 500 mM NaCl, pH7.4. Host cell contaminants are removed by washing the column with equilibration buffer followed by equilibration buffer containing 20 mM imidazole and 60 mM imidazole to baseline. IDH1wt-his homodimer and IDH1wt-his/IDH1R132C-flag are eluted by equilibration buffer containing 250 mM imidazole. Fractions eluted by 250 mM imidazole are pooled together and loaded at 15 cm/h onto a column pre-packed with 10 ml ANTI-FLAG® M2 Affinity Gel (Sigma), the column is equilibrated with 50 mM Tris, 500 mM NaCl, pH7.4. After washing with equilibration buffer, IDH1wt-his/IDH1R132C-flag heterodimer is eluted by equilibration buffer containing flag peptide (0.2 mg/ml). Aliquots of IDH1wt-his/IDH1R132C-flag are flash frozen in liquid N2 and stored at −80° C. Same conditions are used for the purification of IDH1wt-his/IDH1R132H-flag.
# IDH1 wt/IDH1 R132H heterodimer, sequence (O75874 whole entry R132H): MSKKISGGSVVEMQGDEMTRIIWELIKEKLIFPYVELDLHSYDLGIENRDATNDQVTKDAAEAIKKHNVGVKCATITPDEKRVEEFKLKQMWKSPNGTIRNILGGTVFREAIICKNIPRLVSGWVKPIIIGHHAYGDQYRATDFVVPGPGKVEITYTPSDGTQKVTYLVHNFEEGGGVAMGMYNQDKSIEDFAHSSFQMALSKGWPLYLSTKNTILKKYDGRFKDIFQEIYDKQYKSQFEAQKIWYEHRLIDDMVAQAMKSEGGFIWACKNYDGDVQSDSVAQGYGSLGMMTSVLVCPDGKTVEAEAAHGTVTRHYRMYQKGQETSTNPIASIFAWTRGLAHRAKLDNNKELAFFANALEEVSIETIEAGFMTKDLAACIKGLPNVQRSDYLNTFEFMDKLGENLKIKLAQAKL
# IDH1 wt/IDH1 R132H heterodimer, sequence (O75874 whole entry, stated change not applied): as the sequence (O75874 whole entry R132H) above, with H132R counted along it
row,Compound,IC50 [µM]
1,Fc1ccc([C@H]2C[C@H](Nc3nc(N[C@H]4C[C@H](c5ccc(F)cc5)C4)nc(-c4cccc(C(F)(F)F)n4)n3)C2)cc1 [Compound 299],0.1 to 1
2,CN1CCC(Nc2nc(NC3CCC(F)(F)C3)nc(-c3cccc(C(F)(F)F)n3)n2)C1 (centres unmarked) [Compound 96],> 1
3,Cc1cccc(-c2nc(NC3CCC(F)(F)CC3)nc(NC3CCC(F)(F)CC3)n2)n1 [Compound 282],0.1 to 1
4,Cn1c(Nc2nc(NC3CCC(F)(F)C3)nc(-c3cccc(C(F)(F)F)n3)n2)cc2ccccc21 (centres unmarked) [Compound 316],> 1
5,FC1(F)CCC(Nc2nc(NC3CCC(F)(F)CC3)nc(-c3ccn[nH]3)n2)CC1 [Compound 330],> 1
6,OC1CCCC1Nc1nc(NC2CCCC2O)nc(-c2cccc(Cl)n2)n1 (centres unmarked) [Compound 290],0.1 to 1
7,Fc1ccc(N2CC(Nc3nc(NC4CCC(F)(F)C4)nc(-c4cccc(C(F)(F)F)n4)n3)C2)cc1 (centres unmarked) [Compound 313],> 1

# Continued, values first:
row,IC50 [µM],Compound
1,> 1,C[C@@H](Nc1nc(N[C@H](C)C2CC2)nc(-c2cccc(C(N)=O)n2)n1)C1CC1 [Compound 307]
2,> 1,COC(=O)c1cccc(-c2nc(N[C@H](C)C3CC3)nc(N[C@H](C)C3CC3)n2)n1 [Compound 310]
3,> 1,C[C@@H](Nc1nc(N[C@H](C)C2CC2)nc(-c2cccc(O)n2)n1)C1CC1 [Compound 327]
4,0.1 to 1,C[C@@H](Nc1nc(N[C@H](C)C2CC2)nc(-c2cncc(C(F)(F)F)c2)n1)C1CC1 [Compound 300]
5,> 1,C[C@@H](Nc1nc(NCC(C)(C)C(N)=O)nc(-c2cccc(C(F)(F)F)n2)n1)C1CC1 [Compound 303]
6,> 1,C[C@@H](Nc1nc(N[C@H](C)C2CC2)nc(-c2cccc(OC(F)(F)F)c2)n1)C1CC1 [Compound 322]
7,0.1 to 1,C[C@@H](Nc1nc(N[C@H](C)C2CC2)nc(-c2cccc(C#N)n2)n1)C1CC1 [Compound 269]
8,0.05 to 0.1,CC(C)Nc1nc(NC2CCCCC2)nc(-c2ccncc2)n1 [Compound 62]
9,0.05 to 0.1,COCC(COC)Nc1nc(N[C@H](C)C2CC2)nc(-c2cccc(C(F)(F)F)n2)n1 [Compound 63]
10,0.1 to 1,COCCOCC(C)Nc1nc(N[C@H](C)C2CC2)nc(-c2cccc(C(F)(F)F)n2)n1 (some centres unmarked) [Compound 295]

# Molecular target: IDH2 R140Q (Homo sapiens (Human), UniProt P48735, R140Q)
# Sequence (P48735 40-452 R140Q): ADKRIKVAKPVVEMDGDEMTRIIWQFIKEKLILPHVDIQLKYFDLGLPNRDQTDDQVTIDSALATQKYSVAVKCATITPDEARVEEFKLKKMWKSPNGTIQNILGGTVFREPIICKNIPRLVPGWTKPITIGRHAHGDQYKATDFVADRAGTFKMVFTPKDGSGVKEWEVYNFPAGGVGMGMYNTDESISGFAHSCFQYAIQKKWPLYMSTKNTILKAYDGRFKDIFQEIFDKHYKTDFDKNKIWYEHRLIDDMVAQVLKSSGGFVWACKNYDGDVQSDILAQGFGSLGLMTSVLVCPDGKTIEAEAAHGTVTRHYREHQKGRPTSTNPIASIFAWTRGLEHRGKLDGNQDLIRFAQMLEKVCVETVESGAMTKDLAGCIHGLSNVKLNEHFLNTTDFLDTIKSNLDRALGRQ
# Test: In vitro assay for IDH2m R140Q inhibitors, cofactor depletion assay
# Format: biochemical
# Settings: IDH2 R140Q enzyme
# Description: The following describes the experimental procedures used to obtain data on column 7 of Table 4.
# The reaction is terminated by the addition of a second enzyme, diaphorase, and a corresponding substrate, resazurin. Diaphorase reduces resazurin to the highly fluorescent resorufin with the concomitant oxidation of NADPH to NADP, both halting the IDH2 reaction by depleting the available cofactor pool and facilitating quantitation of the amount of cofactor remaining after a specific time period through quantitative production of an easily detected fluorophore.
# The test compound is then incubated for one hour at room temperature with the enzyme; before starting the IDH2 reaction with the addition of 10 μl of substrate mix containing 4 μM NADPH and 1.6 mM α-KG in the buffer described above. After a further 16 hours of incubation at room temperature, the reaction is halted and the remaining NADPH measured through conversion of resazurin to resorufin by the addition of 25 μl Stop Mix (36 μg/ml diaphorase enzyme and 60 μM resazurin; in buffer).
row,Compound,IC50 [µM]
1,FC1(F)CC2(CC(Nc3nc(Nc4ccnc(C(F)(F)F)c4)nc(-c4cccc(C(F)(F)F)n4)n3)C2)C1 [Compound 257],< 0.05
2,"Clc1cccc(-c2nc(NC3[C@H]4COC[C@@H]34)nc(NC3[C@H]4COC[C@@H]34)n2)n1 (stereo partly drawn) [Compound 72, N^2,N^4-di((1R,5S)-3-oxabicyclo[3.1.0]hexan-6-yl)-6-(6-chloropyridin-2-yl)-1,3,5-triazine-2,4-diamine]",> 1
3,"CC(C)(C)CNc1nc(NCC(C)(C)C)nc(-c2cccc(N)n2)n1 [Compound 73, 6-(6-aminopyridin-2-yl)-N^2,N^4-dineopentyl-1,3,5-triazine-2,4-diamine]",< 0.05
4,"CC(C)CNc1nc(NCC(C)C)nc(-c2cccc(N)n2)n1 [Compound 74, 6-(6-aminopyridin-2-yl)-N^2,N^4-diisobutyl-1,3,5-triazine-2,4-diamine]",< 0.05

# Now from value to compound:
row,IC50 [µM],Compound
1,0.05 to 0.1,CC(C)CNc1nc(NC2CCOCC2)nc(-c2cccc(C(F)(F)F)n2)n1 [Compound 75]
2,> 1,CN1CCC(Nc2nc(NC3CCC(F)(F)C3)nc(-c3cccc(C(F)(F)F)n3)n2)C1 (centres unmarked) [Compound 326]

# System: U87MG pLVX-IDH2 R140Q-neo cells
# Test: U87MG pLVX-IDH2 R140Q-neo cell based assay, 2-HG by LC-MS
# Settings: Homo sapiens, U-87 MG
row,Compound,IC50 [µM]
1,C=CCCNc1nc(NCCC=C)nc(-c2ccccc2)n1 [Compound 70],0.05 to 0.1
2,c1ccc(-c2nc(NC3C4COCC43)nc(NC3C4COCC43)n2)cc1 (centres unmarked) [Compound 71],0.05 to 0.1
3,FC1(F)CC2(CC(Nc3nc(Nc4ccnc(C(F)(F)F)c4)nc(-c4cccc(C(F)(F)F)n4)n3)C2)C1 [Compound 257],< 0.05
4,"Clc1cccc(-c2nc(NC3[C@H]4COC[C@@H]34)nc(NC3[C@H]4COC[C@@H]34)n2)n1 (stereo partly drawn) [Compound 72, N^2,N^4-di((1R,5S)-3-oxabicyclo[3.1.0]hexan-6-yl)-6-(6-chloropyridin-2-yl)-1,3,5-triazine-2,4-diamine]",0.05 to 0.1
5,"CC(C)(C)CNc1nc(NCC(C)(C)C)nc(-c2cccc(N)n2)n1 [Compound 73, 6-(6-aminopyridin-2-yl)-N^2,N^4-dineopentyl-1,3,5-triazine-2,4-diamine]",0.05 to 0.1
6,"CC(C)CNc1nc(NCC(C)C)nc(-c2cccc(N)n2)n1 [Compound 74, 6-(6-aminopyridin-2-yl)-N^2,N^4-diisobutyl-1,3,5-triazine-2,4-diamine]",0.05 to 0.1

# The next lines start with the values.
row,IC50 [µM],Compound
1,0.1 to 1,"CC(C)Nc1nc(NC2CCCOC2)nc(-c2ccccc2)n1 (centres unmarked) [Compound 69, N^2-isopropyl-6-phenyl-N^4-(tetrahydro-2H-pyran-3-yl)-1,3,5-triazine-2,4-diamine]"
2,< 0.05,CC(C)CNc1nc(NC2CCOCC2)nc(-c2cccc(C(F)(F)F)n2)n1 [Compound 75]
3,> 1,CN1CCC(Nc2nc(NC3CCC(F)(F)C3)nc(-c3cccc(C(F)(F)F)n3)n2)C1 (centres unmarked) [Compound 326]
